Measured values as given in PubChem BioAssay (NCI).
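The concentration for 50% growth inhibition is given as GI50. TGI is the concentration that stops growth completely.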

Tests used:
Test in all cases: growth of human tumour cells (NCI), 384-well format
KM12 colon = tested on: KM12 colon
RPMI-8226 leukemia = tested on: RPMI-8226 leukemia
NCI-H226 lung = tested on: NCI-H226 lung
SF-539 CNS = tested on: SF-539 CNS
OVCAR-5 ovarian = tested on: OVCAR-5 ovarian
HS 578T breast = tested on: HS 578T breast
OVCAR-8 ovarian = tested on: OVCAR-8 ovarian
TK-10 renal = tested on: TK-10 renal
HCT-15 colon = tested on: HCT-15 colon
SNB-19 CNS = tested on: SNB-19 CNS
HL-60(TB) leukemia = tested on: HL-60(TB) leukemia
SF-268 CNS = tested on: SF-268 CNS
DU-145 prostate = tested on: DU-145 prostate
EKVX NSCLC = tested on: EKVX NSCLC
A498 renal = tested on: A498 renal
PC-3 prostate = tested on: PC-3 prostate
COLO 205 colon = tested on: COLO 205 colon
HOP-92 NSCLC = tested on: HOP-92 NSCLC
NCI/ADR-RES ovarian = tested on: NCI/ADR-RES ovarian
LOX IMVI melanoma = tested on: LOX IMVI melanoma
MDA-MB-231 breast = tested on: MDA-MB-231 breast
MCF7 breast = tested on: MCF7 breast
UACC-257 melanoma = tested on: UACC-257 melanoma
BT-549 breast = tested on: BT-549 breast
ACHN renal = tested on: ACHN renal
A549 NSCLC = tested on: A549 NSCLC

Compound: CNCCn1c(=O)c2cc(OC)c(OC)cc2c2cnc3cc4c(cc3c21)OCO4
- GI50 (KM12 colon): 10.8 nM
- TGI (KM12 colon): 43.2 nM
- GI50 (RPMI-8226 leukemia): < 10 nM
- TGI (RPMI-8226 leukemia): < 10 nM
- GI50 (NCI-H226 lung): 12.7 nM
- TGI (NCI-H226 lung): 756 nM
- GI50 (SF-539 CNS): < 10 nM
- TGI (SF-539 CNS): 12.3 nM
- GI50 (OVCAR-5 ovarian): 10.6 nM
- TGI (OVCAR-5 ovarian): 29.1 nM
- GI50 (HS 578T breast): 33.5 nM
- TGI (HS 578T breast): 1810 nM
- GI50 (OVCAR-8 ovarian): < 10 nM
- TGI (OVCAR-8 ovarian): 33.8 nM
- GI50 (TK-10 renal): 13.8 nM
- TGI (TK-10 renal): 58.4 nM
- GI50 (HCT-15 colon): < 10 nM
- TGI (HCT-15 colon): 25.8 nM
- GI50 (SNB-19 CNS): < 10 nM
- TGI (SNB-19 CNS): 14.1 nM
- GI50 (HL-60(TB) leukemia): < 10 nM
- TGI (HL-60(TB) leukemia): < 10 nM
- GI50 (SF-268 CNS): < 10 nM
- TGI (SF-268 CNS): 17.2 nM
- GI50 (DU-145 prostate): < 10 nM
- TGI (DU-145 prostate): < 10 nM
- GI50 (EKVX NSCLC): 21.9 nM
- TGI (EKVX NSCLC): 51.6 nM
- GI50 (A498 renal): < 10 nM
- TGI (A498 renal): 20.9 nM
- GI50 (PC-3 prostate): 22.1 nM
- TGI (PC-3 prostate): 1340 nM
- GI50 (COLO 205 colon): < 10 nM
- TGI (COLO 205 colon): 1330 nM
- GI50 (HOP-92 NSCLC): 14.1 nM
- TGI (HOP-92 NSCLC): 1330 nM
- GI50 (NCI/ADR-RES ovarian): < 10 nM
- TGI (NCI/ADR-RES ovarian): 42.9 nM
- GI50 (LOX IMVI melanoma): < 10 nM
- TGI (LOX IMVI melanoma): 12 nM
- GI50 (MDA-MB-231 breast): 35.8 nM
- TGI (MDA-MB-231 breast): 139 nM
- GI50 (MCF7 breast): < 10 nM
- TGI (MCF7 breast): 158 nM
- GI50 (UACC-257 melanoma): 22.8 nM
- TGI (UACC-257 melanoma): 1310 nM
- GI50 (BT-549 breast): < 10 nM
- TGI (BT-549 breast): 20.4 nM
- GI50 (ACHN renal): < 10 nM
- TGI (ACHN renal): < 10 nM
- GI50 (A549 NSCLC): < 10 nM
- TGI (A549 NSCLC): 1080 nM
